Assay results from patent publication US5674988A, “4-N-substituted sialic acids and their sialosides” (E. I. Du Pont de Nemours and Company, priority 1996, dated 1997).
pKi: −log10 of the molar value. Counter-ions that a name gives are not always drawn.

Target: influenza A neuraminidase
Assay: Radiolabeled-substrate neuraminidase inhibition assay (hydrolysis of 14C-labeled αDNeuAc(2-6)βDGal(1-4)DGlcNAc, A)
Type: biochemical, influenza A virus
Details: substrate A at 1.0-8.0 mM; inhibitor 0.07, 0.14, 0.28 mM; 100 mM NaOAc-5 mM Na2HPO4 pH 5.5; 37° C.; from Lineweaver-Burk plots; read-out: inhibition constant Ki
Method: In order to determine the effectiveness of the instant thiosialosides as neuraminidase inhibitors, incubations were performed involving the neuraminidase, the thiosialoside inhibitor and a ^14 C-labeled substrate, ^14 C-labeled αDNeuAc (2-6) βDGal (1-4) DGlcNAc (A).
Inhibition constants of the inhibitors were determined by incubating (37° C.) a solution of A at four different concentrations with the neuraminidase, in the presence or absence of the inhibitors. After the reaction, the reaction mixture was diluted with deionized water and passed through a column of Dowex resin. The column was further eluted with deionized water. Under these conditions, only the free LacNAc elutes. The eluant was diluted with Scintillation fluid (10 mL, Formula 989, NEN, MA) and the radioactivity was measured, and the amount of free LacNAc liberated was determined.
The activity of neuraminidase was measured with a radiolabeled substrate. […]
The neuraminidase concentration was 53 ug of influenza A virus in 60 uL of total reaction volume. […] The eluant was diluted with Scintillation fluid (10 mL), Formula 989, NEN, MA) and the radioactivity was measured for 2 or 5 min with a Liquid Scintillation counter. From the Lineweaver-Burk plots for the hydrolysis of A the inhibition constant Ki was calculated according to methods known in the art.

CC(=O)NC1C(N)CC(OCC2OC(O)C(O)C(O)C2O)(C(=O)O)OC1C(O)C(O)CO [Compound 12, Sodium Salt of 5-acetamido-4-amino-3,4,5-trideoxy-D-glycero-D-galacto-nonulopyranosylonicacid (2-6)-α-D-galacto-pyranose]
pKi: 4.00

CC(=O)N[C@H]1[C@H]([C@H](O)[C@H](O)CO)O[C@@](S[C@H](C)[C@H]2OC(O)[C@H](O)[C@@H](O)[C@H]2O)(C(=O)O)C[C@@H]1N (stereo partly drawn) [Compound 14, Sodium Salt of 5-acetamido-4-amino-2-thio-3,4,5-trideoxy-D-glycero-D-galacto-nonulopyranosylonic acid(2-S-6)-7-deoxy-α,β-D-glycero-D-galacto-heptopyranose]
pKi: 4.29
